# System: P388
# Assay: Cytotoxicity against cultured p-388 cells
# Assay type: functional, cell-based
# Conditions: Mus musculus
row,SMILES,IC50 [µg/mL]
1,COc1c(OC)c2c3c(nccc3c1OC)-c1cc(O)c(=O)ccc1-2 [GRANDIRUBRINE],0.18
2,COc1c(OC)c2c3c(nccc3c1OC)-c1cc(OC)c(=O)ccc1-2,1.2
3,COc1cc2ccnc3c2c(c1OC)-c1ccc(=O)ccc1-3 [PAREITROPONE],0.0008
